Results taken from patent US20110144012A1, “SHORTENED GLUCAGON-LIKE PEPTIDE 1(SGLP-1) PREPARATION METHOD AND APPLICATION” (Dalian D.N. Bio-Engineering Co., Ltd., priority 2005, published 2011).

What was measured:
[1] = in comparison with GLP-1; cited from earlier work
[2] = in comparison with GLP-1; U.S. Pat. No. 5,424,286; cited from earlier work
NOD mice [3] = test: Blood glucose-lowering effect on NOD mice (glucose injection); type: in vivo; conditions: for blood glucose level, 0 minutes after administration / blood glucose level, 5 minutes after administration / blood glucose level, 10 minutes after administration / blood glucose level, 20 minutes after administration: NOD mice fasted overnight, 200 microliters 40% glucose + 10 microgram peptide; for blood glucose-lowering effect (in words): NOD mice, glucose injection + 10 microgram peptide
Protocol: Experimental Material and Method: • NOD mice (Provided by Shanghai Laboratory Animal Center, Chinese Academy of Sciences) fasting overnight. • 40% glucose, 0.9% NaCl solution, pure sGLP-1 product (Prepared in Example 1), pure GLP-1 product, reagent kit for blood glucose level determination (Made by Shanghai Institute of Biological Products (SIBP), Ministry of Health P.R.China.) NOD mice fast overnight, and are divided into three groups. Fasting Group 1 is injected with 200 microliters of 40% glucose and 10 microgram of sGLP-1; Fasting Group 2 is injected with 200 microliters of 40% glucose and 10 microgram of GLP-1; Group 3, a control group, is injected with only glucose. Immediately use graduated capillaries (treated with heparin before injection) to sample 20 microliters of blood from their orbital sinuses, add 300 microliters of normal saline to the blood and mix well, centrifuge it at 3000 rpm to remove erythrocyte, and use blood serum for fasting blood glucose level determination. […] The blood serum of the three groups is determined on blood glucose level according to the method in the reagent kit in order to check the blood glucose-lowering effect of each group.

Healthy C57/BL mice = test: C peptide secretion promotion effect of sGLP-1 (serum C peptide, radio immunity kit); type: in vivo; conditions: fasting healthy C57/BL mice, 10 microgram injected
Protocol: Experiment Material and Method: • Healthy C57/BL mice (Provided by Shanghai Laboratory Animal Center, Chinese Academy of Sciences) • 0.9% NaCl solution, pure sGLP-1 product (Prepared in Example 1), pure GLP-1 product. • Radio immunity C-peptide determination reagent kit (Made by Shanghai Institute of Biological Products (SIBP), Ministry of Health P.R.China.) • Healthy C57/BL mice are divided into three groups. Use graduated capillary (wash the inner walls of the capillaries with 1 mg/mL heparin and dry the capillaries) to sample 50 microliters of blood from their orbital sinuses first, and inject the three groups of fasting mice with 10 microgram of sGLP-1, 10 microgram of GLP-1 and 200 microliters of normal saline, and regard this time as zero. Repeat the above operation at 5, 10, 20 and 30 minutes after that respectively. Place all the blood samples in a centrifuge tube with 50 microliters of normal saline in it, mix the blood samples and saline well, centrifuge the mixture at 3000 rpm to remove erythrocyte, and determinate C peptide level of blood serum according to the method in this radio immunity reagent kit to check C peptide secretion promotion effect of sGLP-1. • The experiment result is shown in Table 3.

[4] = test system: GK diabetes mellitus rats; test: Blood glucose-lowering effect experiment in GK diabetes mellitus rats (fasting blood glucose level); type: in vivo; conditions: injected 0.1 mg/time, twice a day for two weeks, fasted overnight
Protocol: Material and Method • GK diabetes mellitus rats (Provided by Shanghai Laboratory Animal Center, Chinese Academy of Sciences)
sGLP-1 sequence is as follows:
• The above eight polypeptides with different sequence is mixed with 0.9% NaCl solution to prepare 1 mg/ml solution, which is standby. • The rats are grouped at random, and fast overnight. Use graduated capillaries (treated with heparin before injection) to sample 20 microliters of blood from their orbital sinuses, add 300 microliters of normal saline to the blood and mix well, centrifuge it at 3000 rpm to remove erythrocyte, and use blood serum for fasting blood glucose level determination. Inject each group of rats with different polypeptides, and use normal saline as Control N. All the rats are injected at 0.1 mg/time, twice a day for two weeks. They must fast overnight, and be sampled according to the above method for fasting blood glucose level determination. […] No. 1 sequence is full-length GLP-1 sequence, in which the second amino acid is changed from A to G, as Control P; No. 2 to No. 5 are the reconstructed sequences with different shortened length.

NOD mice [5] = test: Insulinotropic hormone secretion effect of sGLP-1 (serum insulin, radio immunity kit); type: in vivo; conditions: fasting NOD mice, 10 microgram injected
Protocol: Experimental Material and Method: • NOD mice (Provided by Shanghai Laboratory Animal Center, Chinese Academy of Sciences) • 0.9% NaCl solution, pure sGLP-1 product (prepared in Example 1), pure GLP-1 product, and radio immunity insulin determination reagent kit (Made by Shanghai Institute of Biological Products (SIBP), Ministry of Health P.R.China.) NOD mice are divided into three groups. Use graduated capillary (wash the inner walls of the capillaries with 1 mg/mL heparin and dry the capillaries) to sample 50 microliters of blood from their orbital sinuses first, and inject the three groups of fasting mice with 10 microgram of sGLP-1, 10 microgram of GLP-1 and 200 microliters of normal saline, and regard this time as zero. Repeat the above operation at 5, 10, 20 and 30 minutes after that respectively. Place all the blood samples in a centrifuge tube with 50 microliters of normal saline in it, mix the blood samples and saline well, centrifuge the mixture at 3000 rpm to remove erythrocyte, and determinate insulin level of blood serum according to the method in this radio immunity reagent kit to check insulinotropic hormone secretion effect of sGLP-1. • The experiment result is shown in Table 2.

| Substance | blood glucose level, 0 minutes after administration (NOD mice [3]) | blood glucose level, 5 minutes after administration (NOD mice [3]) | blood glucose level, 10 minutes after administration (NOD mice [3]) | blood glucose level, 20 minutes after administration (NOD mice [3]) | blood glucose-lowering effect (in words) (NOD mice [3]) | c peptide level, 0 minutes after administration (Healthy C57/BL mice) | c peptide level, 5 minutes after administration (Healthy C57/BL mice) | c peptide level, 10 minutes after administration (Healthy C57/BL mice) | c peptide level, 20 minutes after administration (Healthy C57/BL mice) | c peptide level, 30 minutes after administration (Healthy C57/BL mice) | blood glucose-lowering effect (fasting blood glucose level) [4] | insulin level, 0 minutes after administration (NOD mice [5]) | insulin level, 5 minutes after administration (NOD mice [5]) | insulin level, 10 minutes after administration (NOD mice [5]) | insulin level, 20 minutes after administration (NOD mice [5]) | insulin level, 30 minutes after administration (NOD mice [5]) | other results |
| --- | --- | --- | --- | --- | --- | --- | --- | --- | --- | --- | --- | --- | --- | --- | --- | --- | --- |
| Exendin 4 | – | – | – | – | – | – | – | – | – | – | – | – | – | – | – | – | half time in human body (in words) [1]: longer half time in human body; concentration required for insulin secretion action (in words) [2]: lower |
| HGEGTFTSDVSSYLEGQAAKEFIAWL [No. 2, shortened glucagon-like peptide 1 of 26 amino acids, X1 is Gly] | 4.08 mmol/L | 4.34 mmol/L | 4.28 mmol/L | 3.98 mmol/L | have blood glucose-lowering effect | 0.07 pmol/mL | 0.08 pmol/mL | 0.20 pmol/mL | 0.16 pmol/mL | 0.15 pmol/mL | blood glucose-lowering effect prominently exceeding No. 1 | 2.88 10^−6 international unit | 10.56 10^−6 international unit | 19.88 10^−6 international unit | 24.67 10^−6 international unit | 16.45 10^−6 international unit | c peptide secretion promotion (in words) (Healthy C57/BL mice): can prominently promote c peptide secretion; c peptide secretion promotion capacity compared with GLP-1 (in words) (Healthy C57/BL mice): c peptide secretion promotion capacity exceeding GLP-1; blood glucose-lowering effect (fasting blood glucose level) ([4]; listed as sGLP-1): better blood glucose-lowering effect than GLP-1 and its reconstructed sequence; insulin secretion promotion (in words) (NOD mice [5]): can prominently promote insulin secretion; insulin generation stimulation capacity compared with GLP-1 (in words) (NOD mice [5]; short-time versus medium and long-term): the same short-time insulin generation stimulation capacity as GLP-1 and the medium and long-term insulin generation stimulation capacity stronger than GLP-1 |
| HSEGTFTSDVSSYLEGQAAKEFIAWL [No. 3, shortened glucagon-like peptide 1 of 26 amino acids, X1 is Ser] | – | – | – | – | – | – | – | – | – | – | blood glucose-lowering effect prominently exceeding No. 1 | – | – | – | – | – | – |
| His-Ala-Glu-Gly-Thr-Phe-Thr-Ser-Asp-Val-Ser-Ser-Tyr-Leu-Glu-Gly-Gln-Ala-Ala-Lys-Glu-Phe-Ile-Ala-Trp-Leu-Val-Lys-Gly-Arg [GLP-1] | 4.11 mmol/L | 5.12 mmol/L | 4.87 mmol/L | 4.03 mmol/L | have blood glucose-lowering effect | 0.07 pmol/mL | 0.08 pmol/mL | 0.15 pmol/mL | 0.11 pmol/mL | 0.09 pmol/mL | – | 3.11 10^−6 international unit | 9.76 10^−6 international unit | 10.63 10^−6 international unit | 11.23 10^−6 international unit | 6.27 10^−6 international unit | – |
